# From patent US20110020436A1 (priority 2006, published 2011)
# Assays:
# [1] = test system: COX-2; details: macrophage cells after exposure to LPS; cited from earlier work
# [2] = test system: stressed skin flaps; details: animals with pineal glands removed, versus no melatonin; cited from earlier work
# [3] = test system: paw swelling and edema; details: systemic melatonin after injection of a noxious stimulant; cited from earlier work
# [4] = test system: COX-1; details: macrophage cells; cited from earlier work
# [5] = test system: iNOS; details: macrophage cells after exposure to LPS; cited from earlier work
# [6] = Sleepiness side effect in the case subjects; type: in vivo, human; details: topical application
# From the text: This is probably due to either the local metabolism of melatonin or to the metabolism of melatonin in the liver, which is its primary site of metabolism (Slominski).
compound,measurement,setting,value
"COc1ccc2[nH]cc(CCNC(C)=O)c2c1 [melatonin, N-acetyl-5-methoxytryptamine]",activation of COX-2,[1],inhibits the activation
same,levels of MDA and nitric oxide,[2],decreased levels
same,levels of glutathione,[2],increased levels
same,swelling and edema of the paw,[3],reduction of swelling and edema
same,COX-1 function,[4],does not inhibit
same,activation of iNOS,[5],inhibits the activation
same,sleepiness,[6],no sleepiness
